# Data published in publication PMC12081870 (Communications Biology, 2025).
# Where “and” joins values, the source holds several entries; their conditions need not be identical. Equal values may be shown once.
# How the values were obtained:
# Sla1 third SH3 domain = biological target: Sla1 third SH3 domain; set-up: method as in PMID 17244534; conditions: third SH3 domain of Sla1; ref [10]; read-out: binding to ubiquitin affinity; cited from earlier work
# las17 P387A yeast strain = experiment: Growth of yeast, temperature sensitivity; assay type: cell-based, Saccharomyces cerevisiae; conditions: range of temperatures, sole Las17 in cells
# Description: (§1) Supplementary Information.
# (§2) Methods used in Supplementary Data
# (§3) Yeast strains, growth and staining
# (§4) Yeast plasmids used in this study are listed in Supplementary table 1 and yeast strains used in Supplementary table 2. Unless stated otherwise, cells were grown with rotary shaking at 30°C in liquid YPD medium (1% yeast extract, 2% Bacto-peptone, 2% glucose supplemented with 40 μg/ml adenine) or in synthetic medium (0.67% yeast nitrogen base, 2% glucose) with appropriate supplements. Growth assays used solid medium with 2% agar added to above. All strains carrying fluorescent tags have growth properties similar to isogenic control strains with the exception of strains carrying dual reporters where lifetimes were longer for both wild type and mutant strains (in Figure 9D). Point mutations in LAS17 were generated using site directed mutagenesis (Agilent). DNA cassettes carrying mutations for integration were transformed into KAY1801. Mutant colonies were counter-selected on minimal medium, containing 0.005% uracil and 0.1% 5’-Fluoroorotic Acid (5-FOA; Melford labs). […]
# (§5) expressing strains on plates on which a disc carrying 10 µl of latrunculin-A of varying concentrations was placed (white disc). […] They were then scored according to the extent of uptake and categorised according to the key shown. >100 cells were visualised for each strain in each of 3 independent experiments. […]
# yeast cells = experiment: Lucifer yellow bulk phase endocytosis; assay type: cell-based, Saccharomyces cerevisiae; conditions: 90 minutes at 30°C, vs wild type
# Description: as §1, §2, §3, §4, §5
# [1] = tested on: Arc15-mCherry (Arp2/3 complex); experiment: Lifetime of Arc15-mCherry patches at endocytic sites; assay type: cell-based, Saccharomyces cerevisiae; conditions: las17 P387A background vs wild type; wt n = 156, P387A n = 132
# Description: (§6) For live-cell imaging, cells expressing tagged proteins were visualised after growing to early log phase. Analysis was carried out at room temperature (22 °C). Time-lapse of wild-type and mutated Las17-GFP was acquired using OMX DeltaVision V4 and a 60×/1.42 NA objective. Images were taken simultaneously on separate scientific complementary metal oxide semiconductor (sCMOS) cameras (30 msec exposure). Seven 250 nm sections were acquired every 0.5 sec (241 time points). The stacks were then deconvolved and processed, using SoftWorx. Protein localisation and lifetime was analysed from those projections. Fiji software was used to assemble movies and kymographs, to track and record behaviour of individual spots. Graphs show mean ± SD. Sample size Fig. 9A wt n = 67, P387A n = 52; 9B wt n = 183, P387A n = 96; 9 C wt n = 156, P387A n = 132. Where appropriate data was tested for normal distribution using Graphpad Prism software, and then subjected to the appropriate test as described in the methods for each experiment type.
# (§7) Lifetime and behaviour of cell reporter proteins using fluorescence microscopy: Graphs show mean ± SD. Sample size Fig. 9A wt n = 67, P387A n = 52; 9B wt n = 183, P387A n = 96; 9 C wt n = 156, P387A n = 132. Unpaired Mann Whitney statistical analysis of patch lifetimes was carried out using Graphpad Prism software, **** denotes two tailed P value of <0.0001.
# [2] = tested on: Las17 and las17 P387A expressing yeast strains; experiment: Latrunculin-A halo assay on yeast; assay type: cell-based, Saccharomyces cerevisiae; conditions: sole Las17 in cells, words
# Description: as §1, §2, §3, §4, §5
# [3] = tested on: F-actin organisation in yeast cells; experiment: Rhodamine-phalloidin staining, actin organisation in cells; assay type: cell-based, Saccharomyces cerevisiae; conditions: vs wild type cells
# Description: as §1, §2, §3, §4, §5
# [4] = tested on: Las17-GFP and Arc15-mCherry; experiment: Dual-reporter lifetimes, Las17-GFP and Arc15-mCherry co-localisation; assay type: cell-based, Saccharomyces cerevisiae; set-up: lifetime, GFP alone / lifetime, GFP and RFP / lifetime, RFP: unit not given here
# Description: A size bar for each set of kymographs is shown on the upper right of each set. For (A) and (C) size bar is 100 nm and for B is 200 nm. Error bars are standard deviation. […] The site of interest is labelled in the first two time panels with a white arrow. Exposure 0.5 sec with 1 second time lapse. 120 s recorded. […] Error bars are standard deviation.
# Individual spots were analysed for lifetimes and behaviours.
# Yeast strains used in this study are listed in Supplementary table 2 and plasmids used in Supplementary table 1. Unless stated otherwise, cells were grown with rotary shaking at 30 °C in liquid YPD medium (1% yeast extract, 2% Bacto-peptone, 2% glucose supplemented with 40 μg/ml adenine) or in synthetic medium (0.67% yeast nitrogen base, 2% glucose) with appropriate supplements. […] DNA cassettes carrying mutations for integration were transformed into KAY1801. Mutant colonies were counter-selected on minimal medium, containing 0.005% uracil and 0.1% 5’-Fluoroorotic Acid (5-FOA; Melford laboratories). Allele exchange, in growing Ura3^-, 5-FOA resistant colonies, was confirmed by PCR and sequencing.
# as §6, with “Time-lapse of wild-type and mutated Las17-GFP was acquired using OMX DeltaVision V4 and a 60×/1.42 NA objective.” left out, “Sample size Fig. 9A wt n = 67, P387A n = 52; 9B wt n = 183, P387A n = 96; 9 C wt n = 156, P387A n = 132.” left out
# Abp1 = experiment: Lifetime of Abp1-GFP patches at endocytic sites; assay type: cell-based, Saccharomyces cerevisiae; conditions: las17 P387A background vs wild type; wt n = 183, P387A n = 96
# Description: as §6, §7
# [5] = Las17-GFP / Arc15-mCherry dual-label strain
# [6] = sheet Fig9E, individual endocytic patches, one per cell
Substance,Kd (Sla1 third SH3 domain),growth (las17 P387A yeast strain),bulk phase endocytosis (yeast cells),lifetime of Arc15 patches [1],sensitivity to latrunculin-A [2],actin organisation in cells [3],"duration of co-localization of Las17-GFP and Arc15-mCherry [4, 5]","time of Arc15-mCherry alone after Las17 disassembly [4, 5]","time of Las17 at the site before Arc15 is recruited [4, 5]","lifetime, GFP alone [4, 6]","lifetime, GFP and RFP [4, 6]","lifetime, RFP [4, 6]",lifetime of Abp1 patches (Abp1)
ubiquitin,39 µM,–,–,–,–,–,–,–,–,–,–,–,–
"las17 P387A: full-length Las17 with P387A, integrated in yeast in place of wild type LAS17",–,able to support growth across a range of temperatures,slower than in wild type cells,increased lifetime,increase in sensitivity to latrunculin-A,less well polarised,28 s,15 s,about 40 s,30 and 22 and 44 and 66,46 and 78 and 88,62 and 92 and 108,increased lifetime
